61 molecules from the SangsterLogP compilation can be followed below.

A short description of this data set: method code SF, from DOI: 10.1039/p29920001643.
A word on the logP: it is the decadic logarithm of the partition coefficient of the neutral form, usually between octanol and water. A high value points to a more lipophilic compound. As for `CC(=O)c1no[n+]([O-])c1C`, the logP worked out at 0.98.

`CNC(=O)c1nonc1C`: the logP is 0.56.

The molecule `Nc1no[n+]([O-])c1-c1ccccc1` showed a log partition coefficient (logP) of 1.47.

In turn, `Cc1no[n+]([O-])c1Sc1ccccc1` returned a logP of 2.74.

In turn, `c1cnon1` showed a logP of 0.16.

`c1ccc2nsnc2c1` registered a logP of 1.98.

The molecule `Cc1nsnc1C` showed a logP of 1.28.

`Cc1no[n+]([O-])c1C=O` returned a logP of 1.29.

For `Cc1nonc1C(N)=O`, the log partition coefficient (logP) turned out to be 0.31.

`CC(=O)c1c(C)no[n+]1[O-]` registered a log partition coefficient (logP) of 0.8.

`Cc1no[n+]([O-])c1C(N)=O` gave a logP of 0.36.

`Cc1nonc1N` showed a logP of 0.09.

Molecule `COC(=O)c1c(C)no[n+]1[O-]` gave a logP of 0.69.

The molecule `Cc1nonc1Cc1ccc([N+](=O)[O-])cc1` returned a logP of 2.21.

Regarding `CC(=O)Nc1nonc1N`, the logP was -0.23.

As to `Nc1nonc1-c1ccccc1`, the logP amounted to 1.81.

Turning to `Cc1nonc1C`, the logP came out at 0.71.

As for `COC(=O)c1nonc1C`, the logP turned out to be 0.94.

Regarding `Cc1no[n+]([O-])c1Cc1ccccc1`, the logP amounted to 2.22.

Regarding `Cc1no[n+]([O-])c1-c1ccccc1`, the log partition coefficient (logP) came out at 2.16.

For `CCS(=O)(=O)c1no[n+]([O-])c1C`, the lipophilicity (logP) turned out to be 0.65.

With `Cc1c(C(N)=O)no[n+]1[O-]`, the logP amounted to 0.03.

With `Cc1nonc1Sc1ccccc1`, the logP turned out to be 2.92.

As for `c1ccc(-c2nonc2-c2ccccc2)cc1`, the log partition coefficient (logP) worked out at 3.83.

On to `Cc1c(S(=O)(=O)c2ccccc2)no[n+]1[O-]`, for which the logP is 2.03.

The molecule `CCCc1nonc1C` registered a logP of 1.71.

Regarding `Cc1nonc1-c1ccccc1`, the logP was 2.59.

As for `Cc1no[n+]([O-])c1C`, the logP came to 0.23.

Turning to `COC(=O)Nc1nonc1C`, the logP stood at 0.42.

The molecule `O=Cc1no[n+]([O-])c1-c1ccccc1` showed a logP of 2.61.

As for `Clc1nonc1-c1ccccc1`, the logP was 3.2.

`[O-][n+]1onc(-c2ccccc2)c1CO` showed a log partition coefficient (logP) of 1.77.

Turning to `O=Cc1c(-c2ccccc2)no[n+]1[O-]`, the logP came to 2.92.

On to `Nc1c(-c2ccccc2)no[n+]1[O-]`, for which the logP is 1.42.

In turn, `Cc1c(Cc2ccccc2)no[n+]1[O-]` had a lipophilicity (logP) of 2.08.

The molecule `[O-][n+]1onc(Cc2ccccc2)c1Cc1ccccc1` yielded a logP of 3.65.

Molecule `c1ccc2nonc2c1` registered a logP of 1.69.

On to `[O-][n+]1onc(CO)c1-c1ccccc1`, for which the logP is 1.64. This logP and that of the molecule before are within 0.2 log units of each other.

As to `[O-][n+]1onc(-c2ccccc2)c1-c1ccccc1`, the logP worked out at 3.64.

Turning to `CC(=O)Nc1nonc1C`, the lipophilicity (logP) turned out to be 0.17.

`Cc1c(C=O)no[n+]1[O-]` returned a logP of 1.02.

In turn, `Nc1nonc1NC(=O)c1ccccc1` gave a logP of 1.41.

`Cc1no[n+]([O-])c1N` registered a logP of -0.32.

With `Cc1nonc1S(=O)(=O)c1ccccc1`, the logP worked out at 2.36.

Molecule `Nc1nonc1N` yielded a logP of -0.49.

On to `CNC(=O)Nc1nonc1C`, for which the logP amounted to 0.3.

As to `O=[N+]([O-])c1nonc1-c1ccccc1`, the logP amounted to 2.63.

The molecule `[O-][n+]1onc2ccccc21` returned a logP of 1.43.

In turn, `Cc1nonc1[N+](=O)[O-]` registered a logP of 0.97.

On to `Cc1c(S(=O)c2ccccc2)no[n+]1[O-]` (stereo unspecified), for which the logP is 1.5.

`Cc1c(Cl)no[n+]1[O-]` registered a log partition coefficient (logP) of 1.02.

In turn, `OCc1nonc1-c1ccccc1` yielded a log partition coefficient (logP) of 1.92.

`Cc1c(N)no[n+]1[O-]` showed a logP of -0.17.

`COC(=O)c1no[n+]([O-])c1C` returned a logP of 0.56.

For `Cc1nonc1S(=O)c1ccccc1` (stereo unspecified), the lipophilicity (logP) turned out to be 1.76.

`CCNc1nonc1N` showed a log partition coefficient (logP) of 0.51.

For `Cc1no[n+]([O-])c1S(=O)c1ccccc1` (stereo unspecified), the logP stood at 1.75.

Regarding `[O-][n+]1onc(Cl)c1-c1ccccc1`, the logP was determined as 2.7.

Molecule `Cc1no[n+]([O-])c1Cl` showed a logP of 0.9.

On to `CCc1nonc1C`, for which the logP came out at 1.18.

`Cc1c(-c2ccccc2)no[n+]1[O-]` registered a log partition coefficient (logP) of 2.17.
